Paper PMC5951806, “Rapid labelling and covalent inhibition of intracellular native proteins using ligand-directed N-acyl-N-alkyl sulfonamide” (Nature Communications, 2018)

How the values were obtained:
[1] = target: T1, staphylococcal nuclease domain-containing protein 1 (SND1) (Homo sapiens, UniProt Q7KZF4); assay: TMT LC-MSMS of 11-labelled proteins; format: cell-based
T1 sequence (Q7KZF4 1-910): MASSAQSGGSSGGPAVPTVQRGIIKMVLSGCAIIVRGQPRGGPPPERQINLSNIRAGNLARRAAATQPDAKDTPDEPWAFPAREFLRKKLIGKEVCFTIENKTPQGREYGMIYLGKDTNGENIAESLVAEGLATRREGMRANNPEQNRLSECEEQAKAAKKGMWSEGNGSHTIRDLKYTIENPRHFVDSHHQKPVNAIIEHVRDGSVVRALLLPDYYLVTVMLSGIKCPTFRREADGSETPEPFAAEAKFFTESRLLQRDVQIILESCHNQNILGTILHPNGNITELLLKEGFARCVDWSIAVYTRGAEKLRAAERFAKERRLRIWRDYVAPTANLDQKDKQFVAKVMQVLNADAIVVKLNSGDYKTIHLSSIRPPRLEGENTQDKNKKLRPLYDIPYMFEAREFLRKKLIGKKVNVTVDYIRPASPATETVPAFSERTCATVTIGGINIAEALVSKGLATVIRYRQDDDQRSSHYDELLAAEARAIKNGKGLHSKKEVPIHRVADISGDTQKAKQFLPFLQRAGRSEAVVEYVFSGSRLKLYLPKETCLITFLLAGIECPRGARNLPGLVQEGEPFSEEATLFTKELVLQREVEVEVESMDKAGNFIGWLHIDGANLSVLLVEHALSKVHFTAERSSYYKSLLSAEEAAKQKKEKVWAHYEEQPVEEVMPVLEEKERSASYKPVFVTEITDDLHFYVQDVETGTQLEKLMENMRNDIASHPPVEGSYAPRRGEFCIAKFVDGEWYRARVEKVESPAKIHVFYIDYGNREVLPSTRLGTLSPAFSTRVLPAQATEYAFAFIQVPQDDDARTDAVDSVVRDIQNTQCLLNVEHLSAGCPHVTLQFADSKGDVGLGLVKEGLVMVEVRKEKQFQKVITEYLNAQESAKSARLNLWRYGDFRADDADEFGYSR

[2] = target: T2, Peroxiredoxin-4 (PRDX4) (Homo sapiens, UniProt Q13162); assay: TMT LC-MSMS of 11-labelled proteins; format: cell-based
T2 sequence (Q13162 38-271): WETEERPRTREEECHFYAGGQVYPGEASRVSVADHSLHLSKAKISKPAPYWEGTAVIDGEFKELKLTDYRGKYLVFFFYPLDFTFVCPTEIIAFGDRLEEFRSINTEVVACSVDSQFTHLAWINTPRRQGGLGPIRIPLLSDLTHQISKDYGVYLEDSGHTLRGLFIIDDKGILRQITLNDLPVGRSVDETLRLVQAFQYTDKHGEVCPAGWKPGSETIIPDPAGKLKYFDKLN
Text: Supplement 41467_2018_4343_MOESM4_ESM.xlsx, sheet "Exp3" | column: Abundance Ratio: (11) / (11 with PU-H71); Abundance Ratio: (11) / (DMSO); Abundances (Grouped): 11; Abundances (Grouped): 11 with PU-H71

With CC(=O)Oc1ccc2c(c1)Oc1cc(OC(C)=O)ccc1C21OC(=O)c2cc(C(=O)NCCOCCOCCNC(=O)CCCC(=O)N(CC#N)S(=O)(=O)c3ccc(C(=O)NCCCn4c(Sc5cc6c(cc5I)OCO6)nc5c(N)ncnc54)cc3)ccc21 [compound 11] the “Abundance Ratio: (11) / (11 with PU-H71)” value ([1]; Exp3, SND1) was 0.662, the “Abundance Ratio: (11) / (DMSO)” value ([1]; Exp3, SND1) was 1.871 and the “Abundances (Grouped): 11” value ([1]; Exp3, SND1) was 30.5. The “Abundances (Grouped): 11 with PU-H71” value ([1]; Exp3, SND1, with PU-H71) was 46.1, the “Abundance Ratio: (11) / (DMSO)” value ([1]; sheet Exp1, SKBR3 cells, 11 0.5 µM 3 h vs DMSO) was 2.172 and the “Abundance Ratio: (11) / (11 with PU-H71)” value ([1]; sheet Exp1, SKBR3 cells, 11 0.5 µM 3 h vs with PU-H71 10 µM) was 0.838. The “Abundance Ratio: (11) / (DMSO)” value ([1]; sheet Merged, SKBR3 cells, 11 0.5 µM 3 h vs DMSO) was 2.016, the “Abundance Ratio: (11) / (11 with PU-H71)” value ([1]; sheet Merged, SKBR3 cells, 11 0.5 µM 3 h vs with PU-H71 10 µM) was 0.745 and the “Abundance Ratio: (11) / (11 with PU-H71)” value ([2]; Exp3) was 0.973. The “Abundance Ratio: (11) / (DMSO)” value ([2]; Exp3) was 2.612, the “Abundances (Grouped): 11” value ([2]; Exp3) was 25.6 and the “Abundances (Grouped): 11 with PU-H71” value ([2]; Exp3, with PU-H71) was 26.3.
